From PMC4482410, “A Peptide Mimetic of 5-Acetylneuraminic Acid-Galactose Binds with High Avidity to Siglecs and NKG2D” (PLoS ONE, 2015)
Entries after “also recorded” stand apart in the source; their conditions may differ. Where no end group is shown, it is not given here. The star is where a group is joined. Biotin = O=C1N[C@H]2[C@H](CS[C@H]2CCCCC(=O)*)N1

Key:
Siglec-2 = settings: ref Kelm et al. [68], cited from earlier work
Text: Most siglecs are inhibitory receptors containing an ITIM [9–12] and express full activity when a ligand is bound. As documented with Siglec-2 on B cells, a functional ligand binding site is required for tyrosine phosphorylation, recruitment of the phosphatase SHP-1, and inhibition of B cell activation.

[1] = system: lectins that bind monosaccharides; settings: Neu5Ac, Gal, GalNAc or fucose lectins; ref [29],[30]; cited from earlier work
Text: We initially identified several sequences of amino acids that bound to specific plant lectins by screening phage display libraries. Sequences were further refined by in silico modeling of docking of a peptide into the sugar binding site of the crystal structures of lectins. These studies predicted that several short peptide sequences, 5 to 8 amino acids in length, would have significant affinity to lectins chosen as analogs of cell-surface receptors. […] MAA is a mixture of M. amurensis leukoagglutinin (MAL) and M. amurensis hemagglutinin (MAH), both of which along with SNA1 bind preferentially to terminal Neu5Ac-Gal- sequences on complex glycans. Binding of the peptide to several lectins specific for monosaccharides was not detected. We then assayed binding of svH1C to several siglecs, which comprise a family of cell-surface receptors that are specific for Neu5Ac-Gal/GalNAc- sequ ...

siglecs [2] = test: solid-phase binding of biotinylated tetravalent peptides to siglecs; parameters: species or system human; settings: biotinylated peptides 2 μM
Method: (§1) Isothermal microcalorimetry was performed by TA Instruments Professional Services (New Castle, DE) by titrating 10 μM NKG2D (monomer concentration) (R&D Systems, Inc., Minneapolis, MN) with 100 μM svH1C in 50 mM Tris-HCl, pH 7.5, 150 mM NaCl, 0.1 mM EDTA. Recombinant human receptors were obtained from R&D Systems as chimeric proteins. NKG2D is a type II transmembrane protein and the extracellular lectin-type domain was fused at the N-terminus with a human IgG1 Fc domain. Recombinant siglecs contained a C-terminal IgG1 Fc domain or a His6–10 tag. The lyophilized proteins were reconstituted in phosphate-buffered saline, pH 7.2 (PBS), to 100 μg/mL. The Fc-chimeric proteins were bound to protein A/G-coated wells of microtiter plates (Pierce Biotechnology). His-tagged proteins were bound in Nickel-coated plates (Pierce Biotechnology). Sufficient proteins were added to wells to saturate the binding capacity of the wells. After a wash to remove unbound receptor, wells were blocked with 1% gelatin in wash buffer. Wash buffers were either 10 mM phosphate, pH 7.2; 10 mM HEPES, pH 7.4; or 50 mM Tris-HCl, pH.7.5, each in 150 mM NaCl containing 0.05% Tween-20. Biotinylated peptides were prepared as 2 μM solutions in the wash buffer and 50 μL (100 pmoles) were added to each well and incubated at room temperature for one hour. After four washes with 350 μL buffer containing 0.05% Tween-20, each assay was incubated with 50 μL of 1 μg/mL streptavidin-peroxidase (Sigma-Aldrich, St. Louis, MO). […] Absorbance was measured at 450 nm and converted to the amount of streptavidin-peroxidase bound with the specific activity of the conjugate determined under the conditions of the assay. […]
MAA is a mixture of M. amurensis leukoagglutinin (MAL) and M. amurensis hemagglutinin (MAH), both of which along with SNA1 bind preferentially to terminal Neu5Ac-Gal- sequences on complex glycans. Binding of the peptide to several lectins specific for monosaccharides was not detected. […]

CD45 (Homo sapiens) = CD45 (Homo sapiens) (UniProt P08575); settings: cited from earlier work
plant lectins = settings: ref [29]; cited from earlier work
Text: NKG2D is a homodimeric, type II receptor whose recognized ligands are cell-surface proteins MICA and MICB, which are major histocompatibility complex class I homologs. Other polypeptide ligands include ULBP, Rae-1 and H60 [26]. Extensive studies of binding of MICA and MICB [24–26] have shown that each homodimer binds a single ligand at the interface of the subunits. Each subunit of NKG2D also contains a lectin domain that binds glycans with specificity for Neu5Ac(α2,3)Gal. […] Binding was inhibited by fet ...

siglecs [3] = test: inhibition of binding of svH1C to siglecs; parameters: species or system human; settings: fetuin 10 μM or 30 μM; average of single values in two assays
Method: as §1, with “buffer.” for “buffer. Wash buffers were either 10 mM phosphate, pH 7.2; 10 mM HEPES, pH 7.4; or 50 mM Tris-HCl, pH.7.5, each in 150 mM NaCl containing 0.05% Tween-20. Biotinylated peptides were prepared as 2 μM solutions in the wash buffer and 50 μL (100 pmoles) were added to each well and incubated at room temperature for one hour. After four washes with 350 μL buffer containing 0.05% Tween-20, each assay was incubated with 50 μL of 1 μg/mL streptavidin-peroxidase (Sigma-Aldrich, St. Louis, MO).”
Fig 3 Binding of svH1C to lectin-type receptors. […] SEM was determined for six assays from four independent experiments. […]

NKG2D [4] = molecular target: T1, NKG2D (Homo sapiens, UniProt P26718); test: inhibition of binding of svH1C to NKG2D; settings: added with 2 μM svH1C; PBS/0.05% Tween-20; average of single values from three separate assays; fetuin 5, 10, 30 μM; sialyllactose 12, 20, 40 μM
T1 construct: the extracellular lectin-type domain was fused at the N-terminus with a human IgG1 Fc domain; purchased R&D Systems, Inc., Minneapolis, MN
T1 sequence (P26718 73-216 limits assumed): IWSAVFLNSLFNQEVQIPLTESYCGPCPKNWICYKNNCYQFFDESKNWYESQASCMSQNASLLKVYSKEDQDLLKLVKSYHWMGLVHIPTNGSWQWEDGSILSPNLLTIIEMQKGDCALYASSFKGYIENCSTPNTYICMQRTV
Method: as §1, with “buffer.” for “buffer. Wash buffers were either 10 mM phosphate, pH 7.2; 10 mM HEPES, pH 7.4; or 50 mM Tris-HCl, pH.7.5, each in 150 mM NaCl containing 0.05% Tween-20. Biotinylated peptides were prepared as 2 μM solutions in the wash buffer and 50 μL (100 pmoles) were added to each well and incubated at room temperature for one hour. After four washes with 350 μL buffer containing 0.05% Tween-20, each assay was incubated with 50 μL of 1 μg/mL streptavidin-peroxidase (Sigma-Aldrich, St. Louis, MO).”
Fig 4 Binding of svH1C to NKG2D. (A) The amount of bound peptide was measured after extensive washing with PBS containing 0.05% Tween-20. […]

[5] = molecular target: T2, recombinant human NKG2D, Fc chimera (human, UniProt P26718 73-216); test: ELISA; inhibition: fetuin (5, 10 or 30 μM) added along with 2 μM biotinylated svH1C to immobilised receptor; PBS with 0.05% Tween-20
T2 construct: NKG2D, human, extracellular lectin-type domain; Type II transmembrane protein; source: bought: R&D Systems; not shown: Fc (human IgG1), N-terminal, kept
T2 sequence (looked up): T1 sequence (P26718 73-216 limits assumed)

NKG2D [6] = settings: approximately; ref [24]–[26]; cited from earlier work
Method: NKG2D lacks a signaling motif in its cytoplasmic domain and functions as an activating receptor in association with adaptor proteins, DAP10 and DAP12 [75]. In addition to NKG2D, NK cells express other activating cytotoxicity receptors such as NKp30, NKp44 and NKp46. These receptors bind to tandemly multivalent heparan sulfate/heparin sequences with KD values of 0.3 to 2 μM [76]. Similarly to NKG2D, NKp46 also binds multivalent sialyl-Lewis^X with a KD of approximately 0.6 μM [77]. The native in vivo ligands for NKG2D are divergent proteins, MIC-A/B, ULBP, Rae-1 or H60, which bind the rec ...

Chain of CD45 (Homo sapiens) (P08575 26-577): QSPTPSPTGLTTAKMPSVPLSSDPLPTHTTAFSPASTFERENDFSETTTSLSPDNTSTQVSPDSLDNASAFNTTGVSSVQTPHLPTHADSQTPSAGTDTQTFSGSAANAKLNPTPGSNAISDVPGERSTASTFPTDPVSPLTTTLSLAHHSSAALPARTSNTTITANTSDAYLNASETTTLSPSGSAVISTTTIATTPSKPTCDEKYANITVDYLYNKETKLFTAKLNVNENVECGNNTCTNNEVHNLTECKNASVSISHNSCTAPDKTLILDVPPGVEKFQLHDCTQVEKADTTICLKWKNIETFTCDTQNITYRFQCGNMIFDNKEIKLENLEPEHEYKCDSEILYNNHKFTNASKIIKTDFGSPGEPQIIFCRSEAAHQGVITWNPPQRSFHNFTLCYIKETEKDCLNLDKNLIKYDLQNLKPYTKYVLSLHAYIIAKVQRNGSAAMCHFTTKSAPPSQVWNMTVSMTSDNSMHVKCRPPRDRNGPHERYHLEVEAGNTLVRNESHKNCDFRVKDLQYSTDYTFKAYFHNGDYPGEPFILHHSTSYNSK

CO[C@]1(C(=O)O)C[C@H](O)[C@@H](NC(C)=O)[C@H]([C@H](O)[C@H](O)CNC(=O)c2ccc(-c3ccccc3)cc2)O1 [BPC-Neu5Ac]
IC50 (Siglec-2; after cells were treated with neuraminidase): 4 µM
tyrosine phosphorylation and inhibitory activity of Siglec-2 (Siglec-2): reduced tyrosine phosphorylation and attenuated the receptor’s inhibitory activity

HPSLK [sv6B]
avidity to lectins that bind monosaccharides, relative to natural ligands [1]: several orders of magnitude greater than their natural ligands
binding of biotinylated tetravalent peptides to siglecs (siglecs [2]): also bound to siglecs

Siglec-2 (CD22) (from UniProt P20273)
Kd (CD45 (Homo sapiens)): 117 µM

[(VGGGSGGGS)2K]2K-ε-biotinyl-K-NH2 [peptide used as a negative control, reference compound]
binding of biotinylated tetravalent peptides to siglecs (siglecs [2]): no binding

digestion of fetuin with neuraminidase: fetuin digested with neuraminidase
competition with svH1C for binding to plant lectins (plant lectins): nearly eliminated its ability to inhibit binding

fetuin: fetal bovine fetuin (purity, 88%; cat. no. 341506, Calbiochem)
competition with svH1C for binding to plant lectins (plant lectins): effectively competed
inhibition of binding of svH1C to siglecs by fetuin (siglecs [3]): inhibited; also recorded: as effective an inhibitor of binding of svH1C to NKG2D as it was of the binding of the peptide to siglecs

sialyllactose [reference compound]
IC50 (NKG2D [4]): ~18 µM

B1: fetal bovine fetuin (natural protein, UniProt P12763 19-359, looked up)
chain: IPLDPVAGYKEPACDDPDTEQAALAAVDYINKHLPRGYKHTLNQIDSVKVWPRRPTGEVYDIEIDTLETTCHVLDPTPLANCSVRQQTQHAVEGDCDIHVLKQDGQFSVLFTKCDSSPDSAEDVRKLCPDCPLLAPLNDSRVVHAVEVALATFNAESNGSYLQLVEISRAQFVPLPVSVSVEFAVAATDCIAKEVVDPTKCNLLAEKQYGFCKGSVIQKALGGEDVRVTCTLFQTQPVIPQPQPDGAEAEAPSAVPDAAGPTPSAAGPPVASVVVGPSVVAVPLPLHRAHYDLRHTFSGVASVESSSGEAFHVGKTPIVGQPSIPGGPVRLCPGRIRYFKI
modifications: three N-linked and three O-linked glycans per molecule, with termini Neu5Ac(α2,3)Gal or Neu5Ac(α2,6)Gal
notes: fetuin, fetal bovine; source: bought: Calbiochem, EMD Chemicals (purity, 88%)
IC50 ([5]; both partners purified): ~3 µM

B2: MIC-A/B: native in vivo ligands for NKG2D; major histocompatibility complex class I homologs (protein, UniProt Q29983 24-383; Q29980 23-383, looked up)
MHC class I … 1: EPHSLRYNLTVLSWDGSVQSGFLTEVHLDGQPFLRCDRQKCRAKPQGQWAEDVLGNKTWDRETRDLTGNGKDLRMTLAHIKDQKEGLHSLQEIRVCEIHEDNSTRSSQHFYYDGELFLSQNLETKEWTMPQSSRAQTLAMNVRNFLKEDAMKTKTHYHAMHADCLQELRRYLKSGVVLRRTVPPMVNVTRSEASEGNITVTCRASGFYPWNITLSWRQDGVSLSHDTQQWGDVLPDGNGTYQTWVATRICQGEEQRFTCYMEHSGNHSTHPVPSGKVLVLQSHWQTFHVSAVAAAAIFVIIIFYVRCCKKKTSAAEGPELVSLQVLDQHPVGTSDHRDATQLGFQPLMSDLGSTGSTEGA
MHC class I … 2: AEPHSLRYNLMVLSQDGSVQSGFLAEGHLDGQPFLRYDRQKRRAKPQGQWAENVLGAKTWDTETEDLTENGQDLRRTLTHIKDQKGGLHSLQEIRVCEIHEDSSTRGSRHFYYDGELFLSQNLETQESTVPQSSRAQTLAMNVTNFWKEDAMKTKTHYRAMQADCLQKLQRYLKSGVAIRRTVPPMVNVTCSEVSEGNITVTCRASSFYPRNITLTWRQDGVSLSHNTQQWGDVLPDGNGTYQTWVATRIRQGEEQRFTCYMEHSGNHGTHPVPSGKALVLQSQRTDFPYVSAAMPCFVIIIILCVPCCKKKTSAAEGPELVSLQVLDQHPVGTGDHRDAAQLGFQPLMSATGSTGSTEGT
Kd (NKG2D [6]): ~1 µM

B3: svH1C, biotin-tagged tetravalent peptide [(…)2K]2K-ε-biotinyl-K-NH2 (peptide)
chain 1: NPSHPLSGGGGS
chain 2: KKKK(Biotin)-NH2
modifications: also: tetravalent branched: four NPSHPLSGGGGS arms on tri-lysine core joined by peptide and iso-peptide bonds
binding constant estimated from the inhibition by fetuin [5]: 1 µM
streptavidin-peroxidase conjugate bound (average 100% value, without inhibitor) [5]: 2.4 ng
